These results are taken from PMC9147192, “Small Molecule Arranged Thermal Proximity Coaggregation (smarTPCA)—A Novel Approach to Characterize Protein–Protein Interactions in Living Cells by Similar Isothermal Dose–Responses” (International Journal of Molecular Sciences, 2022).

This test concerns the target T1, MAPK3 (Homo sapiens, UniProt P27361).
T1 construct: endogenous in cells; host or cells: HL-60 (ATCC CCL-240)
The experiment in a line: TPP-CCR in living HL-60 cells. It counts as cell-based. The source says:
Therefore, we performed TPP with compound concentration range (TPP-CCR) experiments according to published procedures. In brief, after preparing tryptic peptides from the non-denatured protein fractions (used for immunoblotting in the previous sections) applying the SP3 method, the peptides were labeled using TMT10plex, coding for inhibitor concentration, and the samples belonging to a TMT set were combined, offline high-pH fractionated, and analyzed by MS.
HL-60 cells were expanded as described above for CETSA and TPP-TR to 1.25 million cells per milliliter. […] A number of 2.5 million cells in 2 mL of medium were added to each tube and incubated (1 h, 37 °C). […]
For each sample set comprising ten compound concentration range samples, a same volume of the cell extracts containing the fraction of soluble, non-denatured proteins, corresponding to an average of 5 µg total protein, was used for further analysis. The calculated volume was respectively transferred into PCR tubes of a tube strip and supplemented with SDS sample buffer without DTT and bromophenol blue (final concentrations: 7.5% glycerol, 3% SDS, 37.5 mM Tris/HCl pH 7.0) and ddH2O to a final volume of 10 µL, respectively. […]

T1 sequence (P27361 whole entry): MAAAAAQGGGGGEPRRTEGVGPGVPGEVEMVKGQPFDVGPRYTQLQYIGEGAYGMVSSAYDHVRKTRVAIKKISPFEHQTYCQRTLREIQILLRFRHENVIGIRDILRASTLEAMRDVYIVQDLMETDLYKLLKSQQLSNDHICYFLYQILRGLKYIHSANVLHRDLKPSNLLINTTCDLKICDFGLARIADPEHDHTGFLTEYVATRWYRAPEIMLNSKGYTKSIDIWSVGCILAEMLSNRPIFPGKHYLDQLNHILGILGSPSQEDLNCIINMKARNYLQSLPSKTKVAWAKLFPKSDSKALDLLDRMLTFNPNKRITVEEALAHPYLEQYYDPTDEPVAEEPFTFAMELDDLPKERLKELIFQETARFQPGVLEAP

Regarding `Cc1cnc(Nc2ccc(F)cc2Cl)nc1-c1c[nH]c(C(=O)N[C@H](CO)c2cccc(Cl)c2)c1` [ERK 11e], the Hill slope (commonly a measure of the steepness of the concentration-response curve) (TPP-CCR, living cells, MAPK3) is 0.59. Further, for the setting “living HL-60 cells, […] °C, TMT-MS”, the “Hill slope (MAPK3)” value is 0.59.
